Where “and” joins values, the source holds several entries; their conditions need not be identical. Equal entries are not always repeated.
How the values were obtained:
K. pneumoniae = experiment: Checkerboard assay (antibiotic potentiation); format: cell-based, Klebsiella pneumoniae; conditions: for Interpretation: antibiotic + compound 1; for MICantibiotic + compound: antibiotic MIC with 8 µg/mL (5 µM) compound 1; for MICantibiotic: antibiotic alone; for Potentiation: of antibiotic by 8 µg/mL (5 µM) compound 1
[1] = system: MDR Gram-negative bacteria clinical isolates; experiment: Checkerboard assay, summary over strains; format: cell-based; conditions: of all 14 clinical isolates; number (%)
A. baumannii = experiment: Checkerboard assay (antibiotic potentiation); format: cell-based, Acinetobacter baumannii; conditions: for MICantibiotic: antibiotic alone
P. aeruginosa = experiment: Checkerboard assay (antibiotic potentiation); format: cell-based, Pseudomonas aeruginosa; conditions: for MICantibiotic: antibiotic alone
E. coli = experiment: Checkerboard assay (antibiotic potentiation); format: cell-based, Escherichia coli; conditions: for Interpretation: antibiotic + compound 1; for MICantibiotic + compound: antibiotic MIC with 8 µg/mL (5 µM) compound 1; for MICantibiotic: antibiotic alone; for Potentiation: of antibiotic by 8 µg/mL (5 µM) compound 1
E. cloacae = experiment: Checkerboard assay (antibiotic potentiation); format: cell-based, Enterobacter cloacae; conditions: E. cloacae 121887 (colistin-resistant)
E. faecalis ATCC 29212 = experiment: Checkerboard assay (rifampicin potentiation); format: cell-based
Protocol: (§1) The interaction between the compounds and the antibiotics was evaluated using the fractional inhibitory concentration (FIC) index. FIC indices of ≤0.5 is synergistic, 0.5 < × ≤ 4 is additive, whereas >4 is antagonistic ([34]). […] .
(§2) The bacterial isolates were acquired from ATCC or the Canadian Ward Surveillance (CANWARD) study ([56]). CANWARD isolates were collected from infected patients admitted to participating medical centers across Canada.
(§3) The antibiotic and compounds were serially diluted 2-fold in CAMHB along the x- and y-axis, respectively, on a 96-well plate that was subsequently incubated with equal volumes of bacterial inoculum overnight at 37°C. Wells containing only media were used as negative controls, and wells containing only bacteria were used as positive controls. Synergy was measured by the FIC index, which is the summation of the individual FICs of the antibiotic and the compound. The FIC is calculated by dividing the MIC of one agent in the presence of another by the MIC of the agent alone. Turbidity was confirmed with a Molecular Devices (United States) EMax Plus microplate reader at a wavelength of 590 nm. The FBS studies were conducted by following a previously published protocol ([29], [50]). The FBS was inactivated by heating at 56°C for 30 min with constant swirling.

[2] = system: Methicillin-resistant S. aureus ATCC 22592; experiment: Checkerboard assay (rifampicin potentiation); format: cell-based; conditions: MRSA ATCC 22592
Protocol: as §1, §2, §3

E. faecium ATCC 27270 = experiment: Checkerboard assay (rifampicin potentiation); format: cell-based
Protocol: as §1, §2, §3

[3] = K. pneumoniae 113250 (colistin-resistant)
[4] = E. coli 94393 (colistin-resistant)
[5] = E. coli 94474 (colistin-resistant)
[6] = of rifampicin by 8 µg/mL (5 µM) compound 1
[7] = rifampicin MIC with 8 µg/mL (5 µM) compound 1

With `CO[C@H]1/C=C/O[C@@]2(C)Oc3c(C)c(O)c4c(O)c(c(/C=N/N5CCN(C)CC5)c(O)c4c3C2=O)NC(=O)/C(C)=C\C=C\[C@H](C)[C@H](O)[C@@H](C)[C@@H](O)[C@@H](C)[C@H](OC(C)=O)[C@@H]1C` [Rifampicin] the Interpretation (K. pneumoniae; [3]) was “Synergy (FIC indices of ≤0.5 is synergistic)”, the “MICantibiotic + compound” value (K. pneumoniae; [3]) was 2 µg/mL and the MICantibiotic (K. pneumoniae; [3]) was 32 µg/mL. For the same compound, the Potentiation (K. pneumoniae; [3]) was 16 fold, the Interpretation (K. pneumoniae; K. pneumoniae 116381) was “Synergy (FIC indices of ≤0.5 is synergistic)” and the “MICantibiotic + compound” value (K. pneumoniae; K. pneumoniae 116381) was 0.25 µg/mL. The MICantibiotic (K. pneumoniae; K. pneumoniae 116381) was over 256 µg/mL, the Potentiation (K. pneumoniae; K. pneumoniae 116381) was ≥2048-fold and the “clinical isolates in which the antibiotic was synergized by compound 1” value [1] was 13 (93%) strains. For the same compound, the Interpretation (A. baumannii; A. baumannii 92247 (colistin-resistant), antibiotic + compound 1) was “Synergy (FIC indices of ≤0.5 is synergistic)”, the “MICantibiotic + compound” value (A. baumannii; A. baumannii 92247 (colistin-resistant), antibiotic MIC with 4 µg/mL (2 µM) compound 1) was 0.031 µg/mL and the MICantibiotic (A. baumannii; A. baumannii 92247 (colistin-resistant)) was 4 µg/mL. The Potentiation (A. baumannii; A. baumannii 92247 (colistin-resistant), of antibiotic by 4 µg/mL (2 µM) compound 1) was 128 fold, the Interpretation (A. baumannii; A. baumannii 110193, antibiotic + compound 1) was “Synergy (FIC indices of ≤0.5 is synergistic)” and the “MICantibiotic + compound” value (A. baumannii; A. baumannii 110193, antibiotic MIC with 4 µg/mL (2 µM) compound 1) was 0.004 µg/mL. The MICantibiotic (A. baumannii; A. baumannii 110193) was 4 µg/mL, the Potentiation (A. baumannii; A. baumannii 110193, of antibiotic by 4 µg/mL (2 µM) compound 1) was ≥1024-fold and the Interpretation (A. baumannii; A. baumannii AB027, antibiotic + compound 1) was “Synergy (FIC indices of ≤0.5 is synergistic)”. The “MICantibiotic + compound” value (A. baumannii; A. baumannii AB027, antibiotic MIC with 4 µg/mL (2 µM) compound 1) was 0.004 µg/mL, the MICantibiotic (A. baumannii; A. baumannii AB027) was 2 µg/mL and the Potentiation (A. baumannii; A. baumannii AB027, of antibiotic by 4 µg/mL (2 µM) compound 1) was ≥512-fold. For the same compound, the Interpretation (A. baumannii; A. baumannii AB031, antibiotic + compound 1) was “Synergy (FIC indices of ≤0.5 is synergistic)”, the “MICantibiotic + compound” value (A. baumannii; A. baumannii AB031, antibiotic MIC with 4 µg/mL (2 µM) compound 1) was 0.004 µg/mL and the MICantibiotic (A. baumannii; A. baumannii AB031) was 4 µg/mL. The Potentiation (A. baumannii; A. baumannii AB031, of antibiotic by 4 µg/mL (2 µM) compound 1) was ≥1024-fold, the Interpretation (A. baumannii; A. baumannii ATCC 17978, antibiotic + compound 1) was “Synergy (FIC indices of ≤0.5 is synergistic)” and the Interpretation (A. baumannii; A. baumannii ATCC 17978, antibiotic + compound 3) was “Additive (0.5 < × ≤ 4 is additive)”. For the same compound, the “MICantibiotic + compound” value (A. baumannii; A. baumannii ATCC 17978, antibiotic MIC with 8 µg/mL (5 µM) compound 3) was 2 µg/mL, the “MICantibiotic + compound” value (A. baumannii; A. baumannii ATCC 17978, antibiotic MIC with ¼ MIC (≤5 µM) of compound 1) was 0.016 µg/mL and the MICantibiotic (A. baumannii; A. baumannii ATCC 17978) was 8 µg/mL and 4 µg/mL. For the same compound, the Potentiation (A. baumannii; A. baumannii ATCC 17978, of antibiotic by 8 µg/mL (5 µM) compound 3) was 2 fold, the Potentiation (A. baumannii; A. baumannii ATCC 17978, of antibiotic by ¼ MIC (≤5 µM) of compound 1) was ≥512-fold and the Interpretation (P. aeruginosa; P. aeruginosa 259-96916, antibiotic + compound 1) was “Synergy (FIC indices of ≤0.5 is synergistic)”. The “MICantibiotic + compound” value (P. aeruginosa; P. aeruginosa 259-96916, antibiotic MIC with 8 µg/mL (5 µM) compound 1) was 0.031 µg/mL, the MICantibiotic (P. aeruginosa; P. aeruginosa 259-96916) was 16 µg/mL and the Potentiation (P. aeruginosa; P. aeruginosa 259-96916, of antibiotic by 8 µg/mL (5 µM) compound 1) was ≥512-fold. For the same compound, the Interpretation (P. aeruginosa; P. aeruginosa 262-101856, antibiotic + compound 1) was “Synergy (FIC indices of ≤0.5 is synergistic)”, the “MICantibiotic + compound” value (P. aeruginosa; P. aeruginosa 262-101856, antibiotic MIC with 8 µg/mL (5 µM) compound 1) was 2 µg/mL and the MICantibiotic (P. aeruginosa; P. aeruginosa 262-101856) was 512 µg/mL. For the same compound, the Potentiation (P. aeruginosa; P. aeruginosa 262-101856, of antibiotic by 8 µg/mL (5 µM) compound 1) was 256 fold, the Interpretation (P. aeruginosa; P. aeruginosa 264-105354, antibiotic + compound 1) was “Synergy (FIC indices of ≤0.5 is synergistic)” and the MICantibiotic (P. aeruginosa; P. aeruginosa 264-105354) was 32 µg/mL. The Potentiation (P. aeruginosa; P. aeruginosa 264-105354, of antibiotic by 8 µg/mL (5 µM) compound 1) was ≥256-fold, the Interpretation (P. aeruginosa; P. aeruginosa 101243 (colistin-resistant), antibiotic + compound 1) was “Synergy (FIC indices of ≤0.5 is synergistic)” and the “MICantibiotic + compound” value (P. aeruginosa; P. aeruginosa 101243 (colistin-resistant), antibiotic MIC with 8 µg/mL (5 µM) compound 1) was 2 µg/mL. For the same compound, the MICantibiotic (P. aeruginosa; P. aeruginosa 101243 (colistin-resistant)) was 16 µg/mL, the Potentiation (P. aeruginosa; P. aeruginosa 101243 (colistin-resistant), of antibiotic by 8 µg/mL (5 µM) compound 1) was 8 fold and the Interpretation (P. aeruginosa; P. aeruginosa 114228 (colistin-resistant), antibiotic + compound 1) was “Additive (0.5 < × ≤ 4 is additive)”. For the same compound, the “MICantibiotic + compound” value (P. aeruginosa; P. aeruginosa 114228 (colistin-resistant), antibiotic MIC with 8 µg/mL (5 µM) compound 1) was 8 µg/mL, the MICantibiotic (P. aeruginosa; P. aeruginosa 114228 (colistin-resistant)) was 16 µg/mL and the Potentiation (P. aeruginosa; P. aeruginosa 114228 (colistin-resistant), of antibiotic by 8 µg/mL (5 µM) compound 1) was 2 fold. For the same compound, the Interpretation (P. aeruginosa; P. aeruginosa PAO1, antibiotic + compound 1) was “Synergy (FIC indices of ≤0.5 is synergistic)”, the Interpretation (P. aeruginosa; P. aeruginosa PAO1, antibiotic + compound 3) was “Additive (0.5 < × ≤ 4 is additive)” and the “MICantibiotic + compound” value (P. aeruginosa; P. aeruginosa PAO1, antibiotic MIC with 8 µg/mL (5 µM) compound 1) was 0.063 µg/mL. For the same compound, the “MICantibiotic + compound” value (P. aeruginosa; P. aeruginosa PAO1, antibiotic MIC with 8 µg/mL (5 µM) compound 3) was 32 µg/mL, the MICantibiotic (P. aeruginosa; P. aeruginosa PAO1) was 16 µg/mL and 32 µg/mL and the Potentiation (P. aeruginosa; P. aeruginosa PAO1, of antibiotic by 8 µg/mL (5 µM) compound 1) was ≥256-fold. The Potentiation (P. aeruginosa; P. aeruginosa PAO1, of antibiotic by 8 µg/mL (5 µM) compound 3) was 1 fold, the Interpretation (E. coli; [4]) was “Synergy (FIC indices of ≤0.5 is synergistic)” and the “MICantibiotic + compound” value (E. coli; [4]) was 0.5 µg/mL. The MICantibiotic (E. coli; [4]) was over 16 µg/mL, the Potentiation (E. coli; [4]) was ≥32-fold and the Interpretation (E. coli; [5]) was “Synergy (FIC indices of ≤0.5 is synergistic)”. For the same compound, the “MICantibiotic + compound” value (E. coli; [5]) was 0.5 µg/mL, the MICantibiotic (E. coli; [5]) was 8 µg/mL and the Potentiation (E. coli; [5]) was 16 fold. For the same compound, the Interpretation (E. cloacae; antibiotic + compound 1) was “Synergy (FIC indices of ≤0.5 is synergistic)”, the “MICantibiotic + compound” value (E. cloacae; antibiotic MIC with 8 µg/mL (5 µM) compound 1) was 1 µg/mL and the MICantibiotic (E. cloacae; antibiotic alone) was over 4 µg/mL. For the same compound, the Potentiation (E. cloacae; of antibiotic by 8 µg/mL (5 µM) compound 1) was ≥8-fold, the Potentiation (E. faecalis ATCC 29212; [6]) was 1 fold and the Interpretation (E. faecalis ATCC 29212; rifampicin + compound 1) was “Additive (0.5 < × ≤ 4 is additive)”. The “MICantibiotic + compound” value (E. faecalis ATCC 29212; [7]) was 0.5 µg/mL, the MICantibiotic (E. faecalis ATCC 29212; rifampicin alone) was 0.5 µg/mL and the Potentiation [2, 6] was 1 fold. For the same compound, the Interpretation ([2]; rifampicin + compound 1) was “Additive (0.5 < × ≤ 4 is additive)”, the “MICantibiotic + compound” value [2, 7] was 512 µg/mL and the MICantibiotic ([2]; rifampicin alone) was 512 µg/mL. For the same compound, the Potentiation (E. faecium ATCC 27270; [6]) was 1 fold, the Interpretation (E. faecium ATCC 27270; rifampicin + compound 1) was “Additive (0.5 < × ≤ 4 is additive)” and the “MICantibiotic + compound” value (E. faecium ATCC 27270; [7]) was 0.031 µg/mL. For the same compound, the MICantibiotic (E. faecium ATCC 27270; rifampicin alone) was 0.031 µg/mL.
